Reference: US20060223831A1, “Bromide and its crystal” (priority 2003, published 2006)
Blank lines part the entries; values can stand above or below the molecule they belong to.

Legend:
[1] = Water absorption/desorption behavior (moisture equilibrium measuring device SGA-X100); assay type: physicochemical
Method: Water absorption/desorption behavior of the bromide (β- form Crystal) and the chloride obtained in Reference Example as a comparative compound was measured using a moisture equilibrium measuring device SGA-X100 (VTI) under conditions of temperature: 25° C., measuring range: relative humidity of from 5 to 95%, and measuring interval: 5%.

[2] = Stability test (40° C., 75% R.H., 3 months); assay type: physicochemical; conditions: for Storage stability: 3 months at 40° C. under a relative humidity of 75%
Method: Samples were stored under shade for 3 months in a constant temperature constant moisture vessel of 40° C. and 75% R.H. The purity of each sample before storage and after storage was measured using HPLC, and change of crystal form was measured by powder X-ray diffraction. In addition, as a comparative example, crystals of the chloride were stored for 3 months under the same conditions, and amount of an impurity a (a compound in which the imidazolium ring was ring-opened) was measured. [table]

[3] = tested on: tumor; conditions: cf. page 22 of WO 01/60803; cited from earlier work
[4] = cf. page 22 of WO 01/60803; cited from earlier work
[5] = Evaluation of hygroscopic property (storage in humidity-adjusted desiccators); assay type: physicochemical; conditions: for HPLC purity change / degradation due to storage: 7 days of storage, ca. 0 to 93% R.H.; for Hygroscopic property: conclusion from storage at ca. 0 to 93% R.H.
Method: About 0.5 g of each of the α- form Crystals and β- form Crystals of the bromide obtained in Example 2 was put into a weighing bottle of known mass and, after precisely calculating its mass, preserved under the following storage condition at 25° C. to measure changes in the mass.
Storage condition: A desiccator adjusted to a humidity of about 0% R.H. (silica gel), 33% R.H. (saturated MgCl2.6H2O aqueous solution), 51% R.H. (saturated Ca(NO3)2 aqueous solution), 75% R.H. (saturated NaCl aqueous solution), or 93% R.H. (saturated KNO3 aqueous solution).
i) Moisture absorption (dehydrated amount): By taking out each sample after 7 days of the storage, the weight change was precisely measured and recorded to calculate amount of the absorbed moisture.
ii) Appearance verification: Appearance of the powder was verified with the naked eye and using a magnifying lens.
iii) Powder X-ray diffraction measurement: Powder X-ray diffraction patterns of samples before storage and after completion of the storage period were recorded by a powder X-ray diffraction device.
iv) HPLC purity: Detection of degraded products in the samples before storage and after completion of the storage period was carried out using HPLC to measure purity.
(HPLC conditions) Mobile phase: 0.1% trifluoroacetic acid aqueous solution/acetonitrile=9:2, column: TSKgel ODS 80TsQA, 4.6×150 mm, particle diameter 5 μm (mfd. by Tosoh), flow rate: 1 ml/min, column temperature: 40° C., detection: UV 260 nm

[6] = after storage, 3 months, 40° C., 75% R.H., under shade
[7] = all conditions (ca. 0 to 93% R.H.), 25° C., 7 days
[8] = 93% R.H. storage, 25° C., 7 days
[9] = other conditions (ca. 0 to 75% R.H.), 25° C., 7 days

- Weight gain on forming monohydrate ([1]; 25° C., 65% R.H. to 80% R.H.): 4.3%
- Relative humidity causing deliquescence ([1]; 25° C., absorption): ≥ 85 % R.H.
- Relative humidity below which hydrate returned to anhydride ([1]; 25° C., at the time of drying, hydration state stable up to 25% R.H.): < 25 % R.H.
- Heating temperature returning hydrate to anhydride ([1]; slight heating): ≥ 25 °C
- Storage stability [2]: low
- Impurity a (%) (imidazolium ring-opened compound) [2, 6]: 2.45%
- Impurity a (%) (imidazolium ring-opened compound) ([2]; before storage): 0.64%
Compound: COCCn1c2c([n+](Cc3cnccn3)c1C)C(=O)c1ccccc1C2=O [chloride, 1-(2-methoxyethyl)-2-methyl-4,9-dioxo-3-(pyrazin-2-ylmethyl)-4,9-dihydro-1H-naphtho[2,3-d]imidazol-3-ium chloride]
- in vivo tumor growth inhibitory activity [3]: good
- toxicity [4]: low

- Weight change (%) ([5]; 33% R.H., 25° C., 7 days, listed as β-form Crystals): 0.02%
- HPLC purity (%) ([5]; 33% R.H., 25° C., after 7 days of storage, listed as β-form Crystals): 99.73%
- Weight change (%) ([5]; 51% R.H., 25° C., 7 days, listed as β-form Crystals): 0.04%
- HPLC purity (%) ([5]; 51% R.H., 25° C., after 7 days of storage, listed as β-form Crystals): 99.72%
- Weight change (%) ([5]; 75% R.H., 25° C., 7 days, listed as β-form Crystals): 0.06%
- HPLC purity (%) ([5]; 75% R.H., 25° C., after 7 days of storage, listed as β-form Crystals): 99.71%
- Weight change (%) ([5]; 93% R.H., 25° C., 7 days, listed as β-form Crystals): 0.08%
- HPLC purity (%) ([5]; 93% R.H., 25° C., after 7 days of storage, listed as β-form Crystals): 99.71%
- HPLC purity change / degradation due to storage ([5]; 25° C.): the purity was not decreased
- Appearance verification [5, 7]: No changes were found
- Powder X-ray diffraction pattern after storage [5, 7]: did not change
- Weight change ([5]; all of the moisture adjustment conditions, 25° C., 7 days): Significant weight change was not found
- HPLC purity (%) ([5]; before storage, listed as β-form Crystals): 99.72%
- Weight change (%) ([5]; ca. 0% R.H. (silica gel), 25° C., 7 days, listed as β-form Crystals): 0.01%
- HPLC purity (%) ([5]; ca. 0% R.H., 25° C., after 7 days of storage, listed as β-form Crystals): 99.73%
- Hygroscopic property ([5]; 25° C.): no hygroscopic property
- Hygroscopic property ([1]; 25° C., humidity range of from 5 to 95%): not found
- Storage stability [2]: very stable physically and chemically
- Storage stability ([2]; listed as β- form Crystals): stable
- HPLC purity (%) [2, 6]: 99.71%
- Powder X-ray diffraction pattern [2, 6]: β-form
- HPLC purity (%) ([2]; before storage): 99.71%
- Powder X-ray diffraction pattern ([2]; before storage): β-form
Compound: COCCn1c2c([n+](Cc3cnccn3)c1C)C(=O)c1ccccc1C2=O.[Br-] [β-form Crystal, 1-(2-methoxyethyl)-2-methyl-4,9-dioxo-3-(pyrazin-2-ylmethyl)-4,9-dihydro-1H-naphtho[2,3-d]imidazol-3-ium bromide]

- Weight change (%) ([5]; 33% R.H., 25° C., 7 days, listed as α-form Crystals): −0.02%
- HPLC purity (%) ([5]; 33% R.H., 25° C., after 7 days of storage, listed as α-form Crystals): 99.89%
- Weight change (%) ([5]; 51% R.H., 25° C., 7 days, listed as α-form Crystals): −0.04%
- HPLC purity (%) ([5]; 51% R.H., 25° C., after 7 days of storage, listed as α-form Crystals): 99.89%
- Weight change (%) ([5]; 75% R.H., 25° C., 7 days, listed as α-form Crystals): 0.13%
- HPLC purity (%) ([5]; 75% R.H., 25° C., after 7 days of storage, listed as α-form Crystals): 99.88%
- Appearance verification [5, 8]: change from reddish yellow to yellow
- Powder X-ray diffraction pattern after storage [5, 8]: transitioned to β- form Crystals
- Weight loss [5, 8]: About 1%
- Weight change (%) ([5]; 93% R.H., 25° C., 7 days, listed as α-form Crystals): −0.94%
- HPLC purity (%) ([5]; 93% R.H., 25° C., after 7 days of storage, listed as α-form Crystals): 99.89%
- HPLC purity change / degradation due to storage ([5]; 25° C.): the purity was not decreased
- HPLC purity (%) ([5]; before storage, listed as α-form Crystals): 99.93%
- Weight change (%) ([5]; ca. 0% R.H. (silica gel), 25° C., 7 days, listed as α-form Crystals): −0.10%
- HPLC purity (%) ([5]; ca. 0% R.H., 25° C., after 7 days of storage, listed as α-form Crystals): 99.72%
- Hygroscopic property ([5]; 25° C.): no hygroscopic property
- Appearance verification [5, 9]: No changes were found
- Powder X-ray diffraction pattern after storage [5, 9]: No changes were found
- Storage stability ([2]; listed as α- form Crystals): stable
- HPLC purity (%) [2, 6]: 99.92%
- Powder X-ray diffraction pattern [2, 6]: β-form
- HPLC purity (%) ([2]; before storage): 99.91%
- Powder X-ray diffraction pattern ([2]; before storage): α-form
Compound: COCCn1c2c([n+](Cc3cnccn3)c1C)C(=O)c1ccccc1C2=O.[Br-] [α-form Crystal, 1-(2-methoxyethyl)-2-methyl-4,9-dioxo-3-(pyrazin-2-ylmethyl)-4,9-dihydro-1H-naphtho[2,3-d]imidazol-3-ium bromide]
- Storage stability [2]: degradation due to the storage was not observed

- Hygroscopic property ([5]; 25° C.): no hygroscopic property
Compound: COCCn1c2c([n+](Cc3cnccn3)c1C)C(=O)c1ccccc1C2=O.[Br-] [bromide, 1-(2-methoxyethyl)-2-methyl-4,9-dioxo-3-(pyrazin-2-ylmethyl)-4,9-dihydro-1H-naphtho[2,3-d]imidazol-3-ium bromide]
